Test results published in US20260138961A1, “MODULATORS OF MITOCHONDRIAL DNA REPLICATION” (Pretzel Therapeutics, Inc., priority 2022, published 2026).

Biological target: T1, POLγA:G848S (Homo sapiens, UniProt P54098, G848S)
T1 sequence (P54098 1-1239 G848S): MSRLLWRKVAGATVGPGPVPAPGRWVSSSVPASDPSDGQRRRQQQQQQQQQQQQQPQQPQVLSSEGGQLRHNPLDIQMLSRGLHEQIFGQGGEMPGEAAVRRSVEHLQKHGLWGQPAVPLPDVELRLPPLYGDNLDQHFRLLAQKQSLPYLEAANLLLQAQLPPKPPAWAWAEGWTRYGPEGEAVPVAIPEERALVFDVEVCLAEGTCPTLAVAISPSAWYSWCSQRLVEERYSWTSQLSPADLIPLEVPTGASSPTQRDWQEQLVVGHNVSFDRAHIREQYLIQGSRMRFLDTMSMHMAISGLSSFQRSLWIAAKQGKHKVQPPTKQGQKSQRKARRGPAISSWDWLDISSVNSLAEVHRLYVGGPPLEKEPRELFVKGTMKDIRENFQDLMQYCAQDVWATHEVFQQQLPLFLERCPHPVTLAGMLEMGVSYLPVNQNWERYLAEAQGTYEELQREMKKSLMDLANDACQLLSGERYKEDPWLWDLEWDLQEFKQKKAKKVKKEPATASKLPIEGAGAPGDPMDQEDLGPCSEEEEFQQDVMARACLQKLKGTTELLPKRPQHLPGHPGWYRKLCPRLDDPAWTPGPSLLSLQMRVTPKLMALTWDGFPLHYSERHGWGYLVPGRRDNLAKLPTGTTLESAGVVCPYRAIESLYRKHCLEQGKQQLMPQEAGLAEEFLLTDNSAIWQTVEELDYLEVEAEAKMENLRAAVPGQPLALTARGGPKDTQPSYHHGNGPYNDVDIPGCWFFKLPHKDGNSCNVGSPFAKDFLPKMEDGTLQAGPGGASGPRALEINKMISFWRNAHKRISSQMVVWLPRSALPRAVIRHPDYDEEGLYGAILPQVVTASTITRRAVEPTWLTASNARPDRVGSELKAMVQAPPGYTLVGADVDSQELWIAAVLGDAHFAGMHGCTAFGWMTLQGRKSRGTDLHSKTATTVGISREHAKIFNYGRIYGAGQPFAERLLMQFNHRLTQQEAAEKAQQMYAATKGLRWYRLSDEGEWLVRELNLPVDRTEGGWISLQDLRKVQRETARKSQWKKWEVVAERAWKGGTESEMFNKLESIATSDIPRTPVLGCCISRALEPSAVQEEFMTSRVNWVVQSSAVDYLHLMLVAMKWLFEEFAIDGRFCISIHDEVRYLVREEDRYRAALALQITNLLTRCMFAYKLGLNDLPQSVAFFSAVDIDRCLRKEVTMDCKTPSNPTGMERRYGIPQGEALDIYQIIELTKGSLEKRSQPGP
T1 sequence (Q9UHN1 1-485 partner): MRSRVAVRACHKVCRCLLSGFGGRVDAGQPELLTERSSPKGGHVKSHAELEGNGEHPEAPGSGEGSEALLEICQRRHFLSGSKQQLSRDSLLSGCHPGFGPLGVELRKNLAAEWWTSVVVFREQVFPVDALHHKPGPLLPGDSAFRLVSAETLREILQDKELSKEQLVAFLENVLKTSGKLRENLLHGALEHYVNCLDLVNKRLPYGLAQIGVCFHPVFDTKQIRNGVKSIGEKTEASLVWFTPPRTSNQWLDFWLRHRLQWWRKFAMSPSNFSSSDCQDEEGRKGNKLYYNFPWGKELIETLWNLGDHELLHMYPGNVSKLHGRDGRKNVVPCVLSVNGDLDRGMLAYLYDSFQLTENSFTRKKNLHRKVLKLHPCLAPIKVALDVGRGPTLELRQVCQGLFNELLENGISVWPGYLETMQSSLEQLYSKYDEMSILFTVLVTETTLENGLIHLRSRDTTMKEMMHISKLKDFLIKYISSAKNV
Assay: DNA polymerization assay, POLγA:G848S mutant
Format: biochemical
Conditions: G848S AC50, stimulation of polymerase activity, primed M13mp18 ssDNA, 37° C. 2 hours

AC50 | Compound
> 100 µM | Cc1cc(S(=O)(=O)Nc2noc(-c3ccccc3)n2)c(C)cc1Cl [Example 142, 4-chloro-2,5-dimethyl-N-(5-phenyl-1,2,4-oxadiazol-3-yl)benzenesulfonamide]

Same assay, conditions: stimulation of polymerase activity, primed M13mp18 ssDNA, 37° C. 2 hours; read-out: G848S AC50

Compound | AC50
Cc1cc(S(=O)(=O)N[C@H]2CCCN(C(=O)c3ccccc3)C2)c(C)cc1Cl [Example 129, (S)-N-(1-benzoylpiperidin-3-yl)-4-chloro-2,5-dimethylbenzenesulfonamide] | > 100 µM
Cc1cc(S(=O)(=O)N[C@H]2CCCN(C(=O)N3CCCC3)C2)c(C)cc1Cl [Example 130, (S)-4-chloro-2,5-dimethyl-N-(1-(pyrrolidinee-1-carbonyl)piperidin-3-yl)benzenesulfonamide] | > 100 µM
Cc1cc(S(=O)(=O)Nc2nc(-c3ccccc3)ns2)c(C)cc1Cl [Example 132, 4-chloro-2,5-dimethyl-N-(3-phenyl-1,2,4-thiadiazol-5-yl)benzenesulfonamide] | > 100 µM
Cc1cc(S(=O)(=O)Nc2cccc(C(=O)N3CCC[C@@H]3C)c2)c(C)cc1Cl [Example 133, (S)-4-chloro-2,5-dimethyl-N-(3-(2-methylpyrrolidine-1-carbonyl)phenyl)benzenesulfonamide] | 18 µM
Cc1cc(Cl)ccc1S(=O)(=O)Nc1csc(-c2ccccc2)n1 [Example 135, 4-chloro-2-methyl-N-(2-phenylthiazol-4-yl)benzenesulfonamide] | 2 µM
Cc1cc(S(=O)(=O)Nc2csc(-c3ccccc3)n2)c(Cl)cc1F [Example 136, 2-chloro-4-fluoro-5-methyl-N-(2-phenylthiazol-4-yl)benzenesulfonamide] | 2 µM
O=S(=O)(Nc1csc(-c2ccccc2)n1)c1ccc(Cl)cc1Cl [Example 138, 2,4-dichloro-N-(2-phenylthiazol-4-yl)benzenesulfonamide] | > 100 µM
O=S(=O)(Nc1csc(-c2ccccc2)n1)c1ccc(C(F)(F)F)cc1F [Example 141, 2-fluoro-N-(2-phenylthiazol-4-yl)-4-(trifluoromethyl)benzenesulfonamide] | > 100 µM
Cc1cc(S(=O)(=O)Nc2nc(-c3ccccc3)no2)c(C)cc1Cl [Example 143, 4-chloro-2,5-dimethyl-N-(3-phenyl-1,2,4-oxadiazol-5-yl)benzenesulfonamide] | > 100 µM
Cc1cc(S(=O)(=O)Nc2cccc(C(=O)N3CCC[C@H]3CO)c2)c(C)cc1Cl [Example 145, (S)-4-chloro-N-(3-(2-(hydroxymethyl)pyrrolidine-1-carbonyl)phenyl)-2,5-dimethylbenzenesulfonamide] | 67 µM
Cc1cc(S(=O)(=O)Nc2csc(-c3ccccc3)n2)ccc1Cl [Example 148, 4-chloro-3-methyl-N-(2-phenylthiazol-4-yl)benzenesulfonamide] | > 100 µM
O=S(=O)(Nc1csc(-c2ccccc2)n1)c1cccc(C(F)(F)F)c1 [Example 151, N-(2-phenylthiazol-4-yl)-3-(trifluoromethyl)benzenesulfonamide] | 2 µM
Cc1cc(S(=O)(=O)Nc2ccc3c(c2)CC(=O)N3)c(C)cc1Cl [Example 185, 4-chloro-2,5-dimethyl-N-(2-oxoindolin-5-yl)benzenesulfonamide] | 15 µM
(R)-2,5-dimethyl-N-(3-(3-methylmorpholine-4-carbonyl)phenyl)benzenesulfonamide [Example 1] | 18 µM

Results, then the compound that gave them:

AC50 | Compound
> 100 µM | O=S(=O)(Nc1csc(-c2ccccc2)n1)c1ccc(F)cc1Cl [Example 126, 2-chloro-4-fluoro-N-(2-phenylthiazol-4-yl)benzenesulfonamide]
> 100 µM | O=S(=O)(Nc1csc(-c2ccccc2)n1)c1ccc(C(F)(F)F)cc1 [Example 127, N-(2-phenylthiazol-4-yl)-4-(trifluoromethyl)benzenesulfonamide]
> 100 µM | O=S(=O)(Nc1csc(-c2ccccc2)n1)c1cccc2nccnc12 [Example 128, N-(2-phenylthiazol-4-yl)quinoxaline-5-sulfonamide]
3 µM | Cc1cc(S(=O)(=O)Nc2nsc(-c3ccccc3)n2)c(C)cc1Cl [Example 131, 4-chloro-2,5-dimethyl-N-(5-phenyl-1,2,4-thiadiazol-3-yl)benzenesulfonamide]
1 µM | Cc1ccc(C)c(S(=O)(=O)Nc2csc(-c3ccccc3)n2)c1 [Example 134, 2,5-dimethyl-N-(2-phenylthiazol-4-yl)benzenesulfonamide]
11 µM | O=S(=O)(Nc1csc(-c2ccccc2)n1)c1ccc2ncsc2c1 [Example 137, N-(2-phenylthiazol-4-yl)benzo[d]thiazole-6-sulfonamide]
> 100 µM | O=S(=O)(Nc1csc(-c2ccccc2)n1)c1ccccn1 [Example 139, N-(2-phenylthiazol-4-yl)pyridine-2-sulfonamide]
> 100 µM | O=S(=O)(Nc1csc(-c2ccccc2)n1)c1ccc(F)cc1F [Example 140, 2,4-difluoro-N-(2-phenylthiazol-4-yl)benzenesulfonamide]
> 100 µM | Cc1cc(S(=O)(=O)Nc2csc(-c3ccccc3)n2)c(F)cc1Cl [Example 146, 4-chloro-2-fluoro-5-methyl-N-(2-phenylthiazol-4-yl)benzenesulfonamide]
> 100 µM | O=S(=O)(Nc1csc(-c2ccccc2)n1)c1ccccc1 [Example 147, N-(2-phenylthiazol-4-yl)benzenesulfonamide]
> 100 µM | Cc1cc(S(=O)(=O)N[C@@H]2CCCN(c3ccccc3)C2)c(C)cc1Cl [Example 149, (R)-4-chloro-2,5-dimethyl-N-(1-phenylpiperidin-3-yl)benzenesulfonamide]
> 100 µM | Cc1cc(S(=O)(=O)N[C@@H]2CCCN(C(=O)c3ccccc3)C2)c(C)cc1Cl [Example 150, (R)-N-(1-benzoylpiperidin-3-yl)-4-chloro-2,5-dimethylbenzenesulfonamide]
6 µM | O=S(=O)(Nc1csc(-c2ccccc2)n1)c1ccc2c(c1)CCO2 [Example 152, N-(2-phenylthiazol-4-yl)-2,3-dihydrobenzofuran-5-sulfonamide]
> 100 µM | Cc1cc(S(=O)(=O)N[C@@H]2CCCN(C(=O)N3CCCC3)C2)c(C)cc1Cl [Example 153, (R)-4-chloro-2,5-dimethyl-N-(1-(pyrrolidine-1-carbonyl)piperidin-3-yl)benzenesulfonamide]
